Experimental findings from ChEMBL document CHEMBL1201862, “PubChem BioAssay data set” (2004) are described below.

Test systems include COLO 205; HCC 2998; NCI-H460; SF-295; NCI-H23; SF-268; SK-OV-3; HCT-15; RPMI-8226; HCT-116; SR; LOX IMVI; SW-620; ACHN; A549; EKVX; 786-0; NCI/ADR-RES; MCF7.
Common to all, as to assay: inhibition of tumour cell growth, NCI panel, 48 h

SMILES strings stand for the structures.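 Protocol summary: plate cells (96-well), add compound at 5 concentrations, incubate 48 h, interpolate endpoints linearly. At the GI50, growth is halved.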 Activity calls are given as the source filed them. No stated cut-off is given here; in the data, active = GI50 up to about 1.1 µM and inactive = higher.

As to `CCC(=O)OC1CCn2c1nc1c2C(=O)C(C)=C(NC(C)=O)C1=N` (stereo unspecified), the GI50 in the assay on COLO 205 is 1.72 µM (inactive); with HCC 2998, 3.4 µM (inactive); in the assay on NCI-H460, 1.47 µM (inactive); with SF-295 it was 2.02 µM (inactive); with NCI-H23, 1.77 µM (inactive); in the assay with SF-268, 2.54 µM (inactive). Moreover, the GI50 with SK-OV-3 was 2.6 µM (inactive); in the assay on HCT-15 it was 2.25 µM; with RPMI-8226, 2.06 µM (inactive); with HCT-116, 0.849 µM (active); in the assay with SR, 2 µM (inactive); with LOX IMVI, 0.755 µM (active). Also, the GI50 is 0.916 µM (active) in the assay on SW-620; 1.77 µM (inactive) with ACHN; 3.02 µM (inactive) in the assay with A549; 2.63 µM (inactive) with EKVX; 2.43 µM (inactive) in the assay on 786-0.

As for `COC(=O)c1c2cccccc-2c(Cc2c3cccccc-3c(C(=O)OC)c2O)c1O`, the GI50 in the assay on COLO 205, in the assay on HCC 2998, with NCI-H460, with SF-295, in the assay on NCI-H23 and with SF-268 was > 100 µM (inactive) in each case. Also, the GI50 with SK-OV-3 is > 100 µM (inactive); with HCT-15, above 100 µM; in the assay on RPMI-8226, > 100 µM (inactive); with HCT-116, > 100 µM (inactive); with SR, > 100 µM (inactive); in the assay on LOX IMVI it was > 100 µM (inactive). Further, the GI50 in the assay on SW-620, in the assay on ACHN, in the assay on A549, in the assay with EKVX and in the assay with 786-0 was > 100 µM (inactive) in each case.

For the molecule `COc1cc2c(c(OC)c1)C(=O)C(=O)C(CC1(C)OCCCO1)=C2`, the GI50 in the assay with COLO 205 was 3.49 µM (inactive); in the assay with HCC 2998, 16.4 µM (inactive); in the assay with NCI-H460, 13.3 µM (inactive); in the assay with SF-295, 13.9 µM (inactive); with NCI-H23 it was 9.12 µM (inactive); in the assay with SF-268 it was 14.7 µM (inactive). For the same molecule, the GI50 in the assay with SK-OV-3 is 16.6 µM (inactive); with HCT-15, 6.25 µM; with RPMI-8226, 3.56 µM (inactive); with HCT-116, 4.38 µM (inactive); with SR it was 3.3 µM (inactive); in the assay on LOX IMVI, 5.01 µM (inactive). Moreover, the GI50 is 1.79 µM (inactive) in the assay with SW-620; 6.61 µM (inactive) in the assay with ACHN; 10.9 µM (inactive) with A549; 15.9 µM (inactive) with EKVX; 9.1 µM (inactive) with 786-0.

`CC[n+]1[b-](C(C)(C)C)n(/N=C/C(C)(C)C)[b-](C(C)(C)C)[n+]1CC`: the GI50 with COLO 205, in the assay on HCC 2998, with NCI-H460, with SF-295, in the assay with NCI-H23 and in the assay with SF-268 was > 100 µM (inactive) throughout. The GI50 with HCT-15 is above 100 µM; in the assay with HCT-116, > 100 µM (inactive); in the assay on SR, > 100 µM (inactive); in the assay on NCI/ADR-RES, > 100 µM (inactive); in the assay on MCF7, > 100 µM (inactive); in the assay on LOX IMVI it was > 100 µM (inactive). Moreover, the GI50 in the assay on SW-620, in the assay with ACHN, with A549, in the assay with EKVX and with 786-0 was > 100 µM (inactive) each time.

Regarding `CC(C)CCC[C@@H](C)[C@H]1CC[C@H]2[C@@H]3CC=C4C[C@@H](OC(=O)c5cccc6c(=O)c7ccccc7[nH]c56)CC[C@]4(C)[C@H]3CC[C@]12C`, the GI50 in the assay on COLO 205, in the assay on HCC 2998, in the assay with SF-295, in the assay with NCI-H23, with SF-268 and in the assay on SK-OV-3 was > 75 µM (inactive) throughout. For the same molecule, the GI50 with HCT-15 is above 75 µM; in the assay on RPMI-8226 it was > 75 µM (inactive); with SR, > 75 µM (inactive); in the assay with NCI/ADR-RES, > 75 µM (inactive); in the assay on MCF7, > 75 µM (inactive); in the assay on LOX IMVI, > 75 µM (inactive). Moreover, the GI50 with SW-620, with ACHN, with A549, with EKVX and in the assay on 786-0 was > 75 µM (inactive) in each case.

On to `O=C(/C=C/c1ccc([N+](=O)[O-])o1)N1CCN(Cc2ccccc2)CC1`, for which the GI50 was 15.7 µM (inactive) in the assay on HCC 2998; 11.2 µM (inactive) in the assay on NCI-H460; 15.3 µM (inactive) in the assay on SF-295; 5.93 µM (inactive) in the assay on NCI-H23; 14 µM (inactive) in the assay with SF-268; 43.5 µM (inactive) in the assay with SK-OV-3. For the same molecule, the GI50 is 4.41 µM in the assay with HCT-15; 10.5 µM (inactive) in the assay on RPMI-8226; 10.8 µM (inactive) in the assay with HCT-116; 13 µM (inactive) in the assay with SR; 12.6 µM (inactive) in the assay on LOX IMVI; 7.08 µM (inactive) in the assay on SW-620. Besides, the GI50 in the assay on ACHN was 14.7 µM (inactive); in the assay with A549 it was 16.9 µM (inactive); with EKVX, 22.4 µM (inactive); in the assay on 786-0, 12.7 µM (inactive).

On to `CCOc1cc2c(cc1OC)c[n+](C)c1c3cc(OC)c(OC)cc3ccc21`, for which the GI50 with COLO 205 was 31.6 µM (inactive); in the assay with HCC 2998 it was > 100 µM (inactive); with NCI-H460, > 73.6 µM (inactive); with SF-295, > 100 µM (inactive); with NCI-H23 it was > 93.5 µM (inactive); with SF-268 it was > 93.3 µM (inactive). Also, the GI50 in the assay with SK-OV-3 was > 100 µM (inactive); in the assay on HCT-15, above 75.2 µM; in the assay on RPMI-8226, 40.7 µM (inactive); in the assay on HCT-116, 49.1 µM (inactive); in the assay with SR it was 46.6 µM (inactive); with LOX IMVI, 46.6 µM (inactive). In addition, the GI50 with SW-620 was 46.5 µM (inactive); in the assay on ACHN, > 100 µM (inactive); with A549 it was > 100 µM (inactive); in the assay with EKVX, > 100 µM (inactive); in the assay on 786-0, > 42.1 µM (inactive).

As for `Nc1nnc(NC(=O)C2=NS(=O)(=O)c3cc(S(N)(=O)=O)c(Cl)cc3N2)[nH]1`, the GI50 with COLO 205 is > 100 µM (inactive); in the assay with HCC 2998 it was 0.752 µM (active); in the assay on NCI-H460 it was > 100 µM (inactive); with SF-295, > 100 µM (inactive); in the assay with NCI-H23 it was > 100 µM (inactive); with SF-268, > 100 µM (inactive). Also, the GI50 with SK-OV-3 was > 100 µM (inactive); in the assay with HCT-15, above 100 µM; in the assay with RPMI-8226, > 100 µM (inactive); in the assay on HCT-116 it was > 100 µM (inactive); in the assay on SR, > 100 µM (inactive); in the assay with LOX IMVI, > 100 µM (inactive). Besides, the GI50 in the assay with SW-620, in the assay on ACHN, in the assay with A549, with EKVX and in the assay with 786-0 was > 100 µM (inactive) in each case.

As for `Cn1cc2ccccc2c1-c1nc(F)nc(OCC(=O)[C@H]2CCC3[C@@H]4CCC5=CC(=O)CC[C@]5(C)C4[C@@H](O)C[C@@]32C)n1` (stereo partly specified), the GI50 was 20 µM (inactive) in the assay on COLO 205; 25.6 µM (inactive) with HCC 2998; 21.7 µM (inactive) in the assay with NCI-H460; 23.8 µM (inactive) in the assay on SF-295; 7.78 µM (inactive) in the assay on NCI-H23; 13.1 µM (inactive) with SF-268. In addition, the GI50 is 19.1 µM (inactive) with SK-OV-3; 7.18 µM with HCT-15; 6.61 µM (inactive) in the assay on RPMI-8226; 11.1 µM (inactive) in the assay on HCT-116; 2.86 µM (inactive) with SR; 4.66 µM (inactive) with LOX IMVI. The GI50 with SW-620 was 8.04 µM (inactive); in the assay with ACHN, 17.7 µM (inactive); with A549 it was 32.4 µM (inactive); with EKVX, 23.4 µM (inactive); in the assay on 786-0, 16.5 µM (inactive).

In the case of `O=C1CC[C@@H](S(=O)(=O)c2ccccc2)[C@H](/C=C/c2ccccc2)O1`, the GI50 with COLO 205, with HCC 2998, with NCI-H460, with SF-295, in the assay with NCI-H23 and in the assay with SK-OV-3 was > 100 µM (inactive) each time. The GI50 in the assay with HCT-15 was above 100 µM; in the assay on RPMI-8226, > 100 µM (inactive); with HCT-116, > 100 µM (inactive); in the assay with SR, > 100 µM (inactive); in the assay on LOX IMVI it was > 100 µM (inactive); with SW-620, > 100 µM (inactive). Moreover, the GI50 with ACHN, with A549, in the assay on EKVX and in the assay on 786-0 was > 100 µM (inactive) throughout.

As to `N[C@H](CCC(=O)NCP(=O)(O)O)C(=O)O`, the GI50 in the assay on COLO 205 is > 100 µM (inactive); with HCC 2998, > 100 µM (inactive); in the assay on NCI-H460 it was > 100 µM (inactive); in the assay on SF-295 it was 5.33 µM (inactive); in the assay on NCI-H23 it was > 100 µM (inactive); in the assay on HCT-15, above 100 µM. Also, the GI50 in the assay on RPMI-8226, in the assay on HCT-116, in the assay on SR, with NCI/ADR-RES, with MCF7 and in the assay with SW-620 was > 100 µM (inactive) throughout. For the same molecule, the GI50 with ACHN, in the assay with A549, in the assay with EKVX and in the assay on 786-0 was > 100 µM (inactive) in each case.

Turning to `COc1ccc2[nH]c3c4c(cc(-c5ccccc5)c3c2c1)C(=O)N(c1ccccc1)C4=O`, the GI50 in the assay on COLO 205 was 17.7 µM (inactive); with HCC 2998, > 100 µM (inactive); with NCI-H460, 9.73 µM (inactive); in the assay on SF-295, 4.84 µM (inactive); with NCI-H23 it was 31.9 µM (inactive); in the assay on SF-268, 23.1 µM (inactive). For the same molecule, the GI50 in the assay on SK-OV-3 was 26.3 µM (inactive); with HCT-15, 41.4 µM; in the assay with RPMI-8226 it was > 60 µM (inactive); in the assay on HCT-116 it was 29.2 µM (inactive); in the assay on SR, 1.77 µM (inactive); with LOX IMVI, 16.1 µM (inactive). Besides, the GI50 in the assay with SW-620 is 11.4 µM (inactive); with ACHN, > 41.5 µM (inactive); in the assay with A549, 13.8 µM (inactive); in the assay on EKVX, 38.6 µM (inactive); with 786-0, 4.9 µM (inactive).
